In patent US20240027435A1, “METHOD AND KIT FOR LABELING EUKARYOTIC CELLS FROM A MULTICELLULAR ORGANISM USING MODIFIED MONOSACCHARIDE COMPOUNDS AND PHARMACEUTICAL COMPOSITION COMPRISING SUCH CELLS” (THERAONCO, priority 2020, published 2024):

Columns and labels:
Type in all cases: cell-based, Human
Kasumi-1 = assay: Labelling of cells, fluorescence cancer/non cancer ratio: Kasumi-1 vs B12-F8; settings: fluorescence signal ratio; Kasumi-1 (Blood, Acute Myeloid Leukemia, 48 h) vs B12-F8 (24 h); one doubling time
Experimental: (§1) The cell lines were grown in suitable medium, supplemented by 10% fetal bovine serum (FBS) (VWR international S.A.S). The culture medium was changed every two days. The passaging of cells was performed using Tryp-LE express 1× (Gibco). The cell viability was estimated using trypan blue exclusion tests.
(§2) Cells were seeded in 24-well plates, at a density of 5×10^4 cells/well. Then, cells were incubated at 37° C., 5% CO2, during 24 hours. The culture media were adapted to the tested cells and supplemented by 10% fetal bovine serum (FBS). The incubation time corresponded to one doubling time of the tested cells. The fluorescence signal cancer/non cancer ratios were calculated based on fluorescence intensities obtained with Xylose-N3 or Ribose-N3 tested on cancer and corresponding non cancer cells.
(§3) The fluorescence assimilation of Xylose-N3 or Ribose-N3 probes was visualized by copper-free click chemistry using sulfo-DBCO-biotin (1 mM), followed by labeling with a mouse anti-biotin Alexa Fluor 488 antibody conjugate (0.62 mg/ml stock, Jackson ImmunoResearch, dilution 1/10). […]
(§4) The fluorescence acquisition was recorded using Olympus Microscopy IX83 (Olympus Life Science) equipped with a 60×/1.3 […]/1.4 SRI (silicone refractive index) objective, and Hamamatsu oreca flash 4 LT camera with 109 nm/pixel calibrated pixel size. […]

A431 = assay: Labelling of cells, fluorescence cancer/non cancer ratio: A431 vs Hacat; settings: fluorescence signal ratio; A431 (Skin, Epidermoid carcinoma) vs Hacat; one doubling time (30 h)
Experimental: as §1, §2, §3, §4

BL-2 = assay: Labelling of cells, fluorescence cancer/non cancer ratio: BL-2 vs Isolated primary B cells; settings: fluorescence signal ratio; BL-2 (Blood, non-endemic Burkitt lymphoma, 24 h) vs Isolated primary B cells
Experimental: as §1, §2, §3, §4

AGS = assay: Labelling of cells, fluorescence cancer/non cancer ratio: AGS vs Stomach epitelial cell; settings: fluorescence signal ratio; AGS (Stomach, Gastric adenocarcinoma) vs Stomach epitelial cell; one doubling time (30 h)
Experimental: as §1, §2, §3, §4

K562 = assay: Labelling of cells, fluorescence cancer/non cancer ratio: K562 vs Lymphocytes T; settings: fluorescence signal ratio; K562 (Blood, Chronic Myeloid Leukemia) vs Lymphocytes T; one doubling time (24 h)
Experimental: as §1, §2, §3, §4

MDA MB175 = assay: Labelling of cells, fluorescence cancer/non cancer ratio: MDA MB175 vs HME-1; settings: fluorescence signal ratio; MDA MB175 (Breast cancer) vs HME-1; one doubling time (30 h)
Experimental: as §1, §2, §3, §4

MDA-MB-231 = assay: Labelling of cells, fluorescence cancer/non cancer ratio: MDA-MB-231 vs Breast epithelial cell; settings: fluorescence signal ratio; MDA-MB-231 (Breast adenocarcinoma) vs Breast epithelial cell; one doubling time (40 h)
Experimental: as §1, §2, §3, §4

KCL22 = assay: Labelling of cells, fluorescence cancer/non cancer ratio: KCL22 vs Lymphocytes; settings: fluorescence signal ratio; KCL22 (Blood, chronic myelogenous leukemia) vs Lymphocytes; one doubling time (24 h)
Experimental: as §1, §2, §3, §4

DOHH-2 = assay: Labelling of cells, fluorescence cancer/non cancer ratio: DOHH-2 vs Isolated primary B cells; settings: fluorescence signal ratio; DOHH-2 (Blood, Diffuse large B-cell lymphoma germinal center B-cell type, 40-48 h) vs Isolated primary B cells
Experimental: as §1, §2, §3, §4

OCI-Ly3 = assay: Labelling of cells, fluorescence cancer/non cancer ratio: OCI-Ly3 vs Isolated primary B cells; settings: fluorescence signal ratio; OCI-Ly3 (Blood, Diffuse large B-cell lymphoma, 24 h) vs Isolated primary B cells
Experimental: as §1, §2, §3, §4

THP1 = assay: Labelling of cells with azido-monosaccharide probe, fluorescence cancer/non cancer ratio: THP1 vs Monocytes/Macrophages; settings: fluorescence signal ratio; THP1 (Blood, monocytic acute leukemia) vs Monocytes/Macrophages; incubation one doubling time (26 h)
Experimental: as §1, §2, §3, §4

PANC = assay: Labelling of cells, fluorescence cancer/non cancer ratio: PANC vs HPNE; settings: fluorescence signal ratio; PANC (Pancreas, Pancreatic carcinoma) vs HPNE; one doubling time (32 h)
Experimental: as §1, §2, §3, §4

A549 = assay: Labelling of cells, fluorescence cancer/non cancer ratio: A549 vs Bronchial epithelial cell; settings: fluorescence signal ratio; A549 (Lung, Carcinoma) vs Bronchial epithelial cell; one doubling time (40 h)
Experimental: as §1, §2, §3, §4

HT29 = assay: Labelling of cells, fluorescence cancer/non cancer ratio: HT29 vs Colon epithelial cell; settings: fluorescence signal ratio; HT29 (colon, Colorectal adenocarcinoma) vs Colon epithelial cell; one doubling time (40 h)
Experimental: as §1, §2, §3, §4

[N-]=[N+]=NC[C@@H](O)[C@H](O)[C@@H](O)C=O [Xylose-N3, 5-azido-5-deoxy-xylose]
Cancer/Non Cancer Ratio (Kasumi-1): 2 | Cancer/Non Cancer Ratio (A431): 12 | Cancer/Non Cancer Ratio (BL-2): 2 | Cancer/Non Cancer Ratio (AGS): 2 | Cancer/Non Cancer Ratio (K562): 5 | Cancer/Non Cancer Ratio (MDA MB175): 3 | Cancer/Non Cancer Ratio (MDA-MB-231): 4 | Cancer/Non Cancer Ratio (KCL22): 7 | Cancer/Non Cancer Ratio (DOHH-2): 12 | Cancer/Non Cancer Ratio (OCI-Ly3): 9 | Cancer/Non Cancer Ratio (THP1): 25 | Cancer/Non Cancer Ratio (PANC): 3 | Cancer/Non Cancer Ratio (A549): 10 | Cancer/Non Cancer Ratio (HT29): 8
